{"source": "paper PMC6839502", "about": "(Journal of Alzheimer's Disease, 2019)", "assay": "Safety and tolerability", "assay_type": "in vivo, human", "key": {"[1]": {"conditions": "275 mg QD 14 days, healthy adults, 9 evaluable"}, "[2]": {"conditions": "single 3 mg, healthy adults, 5 evaluable"}, "[3]": {"conditions": "single 12 mg, healthy adults, 6 evaluable"}, "[4]": {"conditions": "single 40 mg, healthy adults, 6 evaluable"}, "[5]": {"conditions": "single 160 mg, healthy adults, 6 evaluable"}, "[6]": {"conditions": "single 200 mg fed, healthy adults, 6 evaluable"}, "[7]": {"conditions": "single 200 mg, healthy adults, 6 evaluable"}, "[8]": {"conditions": "single 400 mg, healthy adults, 6 evaluable"}, "[9]": {"conditions": "single 540 mg, healthy adults, 6 evaluable"}, "[10]": {"conditions": "studies B8271001 and B8271004 overall"}}, "data": [{"smiles": "C[C@H]1C[C@H]2CSC(N)=N[C@@]2(c2nc(NC(=O)c3ccc(OC(F)F)cn3)cs2)CO1", "note": "[PF-06751979]", "values": [{"measurement": "Number of subjects with temporary discontinuation or dose reduction due to AEs", "setting": "125 mg QD 14 days, healthy older subjects, 8 evaluable", "value": 0}, {"measurement": "Back pain, all-causality", "setting": "[1]", "value": 0}, {"measurement": "Fatigue (MedDRA preferred term), all-causality", "setting": "[1]", "value": 0}, {"measurement": "Headache (MedDRA preferred term), all-causality", "setting": "[1]", "value": 1}, {"measurement": "Headache, treatment related", "setting": "[1]", "value": 0}, {"measurement": "Hepatic enzyme increased, all-causality", "setting": "[1]", "value": "1 (1)"}, {"measurement": "Hepatic enzyme increased, treatment related", "setting": "[1]", "value": "1 (1)"}, {"measurement": "Insomnia, all-causality", "setting": "[1]", "value": 0}, {"measurement": "Musculoskeletal discomfort, all-causality", "setting": "[1]", "value": 2}, {"measurement": "Musculoskeletal discomfort, treatment related", "setting": "[1]", "value": 0}, {"measurement": "Number of AEs, all-causality treatment-emergent", "setting": "[1]", "value": 18}, {"measurement": "Number of AEs, treatment related", "setting": "[1]", "value": 13}, {"measurement": "Number of subjects with AEs, all-causality", "setting": "[1]", "value": 8}, {"measurement": "Number of subjects with AEs, treatment related", "setting": "[1]", "value": 7}, {"measurement": "Number of subjects with SAEs", "setting": "[1]", "value": 0}, {"measurement": "Number of subjects with discontinuation due to AEs", "setting": "[1]", "value": "1 (1)"}, {"measurement": "Number of subjects with discontinuation due to AEs, treatment related", "setting": "[1]", "value": "1 (1)"}, {"measurement": "Number of subjects with severe AEs", "setting": "[1]", "value": 0}, {"measurement": "Number of subjects with temporary discontinuation or dose reduction due to AEs", "setting": "[1]", "value": 0}, {"measurement": "Paresthesia, all-causality", "setting": "[1]", "value": "1 (1)"}, {"measurement": "Paresthesia, treatment related", "setting": "[1]", "value": "1 (1)"}, {"measurement": "Procedural pain, all-causality", "setting": "[1]", "value": 0}, {"measurement": "Rash leading to discontinuation, one subject", "setting": "275 mg QD, 6 h post-dose on Day 11, deemed treatment related", "value": "moderate maculopapular rash"}, {"measurement": "AST elevation, one subject", "setting": "275 mg QD, Day 14, after discontinuation on Day 11", "value": 1.15, "unit": "x ULN"}, {"measurement": "Fatigue (MedDRA preferred term), all-causality", "setting": "[2]", "value": 0}, {"measurement": "Headache (MedDRA preferred term), all-causality", "setting": "[2]", "value": 0}, {"measurement": "Number of AEs, all-causality treatment-emergent", "setting": "[2]", "value": 1}, {"measurement": "Number of AEs, treatment related", "setting": "[2]", "value": 0}, {"measurement": "Number of subjects with AEs, all-causality", "setting": "[2]", "value": 1}, {"measurement": "Number of subjects with AEs, treatment related", "setting": "[2]", "value": 0}, {"measurement": "Number of subjects with SAEs", "setting": "[2]", "value": 0}, {"measurement": "Number of subjects with discontinuation due to AEs", "setting": "[2]", "value": 0}, {"measurement": "Number of subjects with severe AEs", "setting": "[2]", "value": 0}, {"measurement": "Number of subjects with temporary discontinuation or dose reduction due to AEs", "setting": "[2]", "value": 0}, {"measurement": "Fatigue (MedDRA preferred term), all-causality", "setting": "[3]", "value": 0}, {"measurement": "Headache (MedDRA preferred term), all-causality", "setting": "[3]", "value": 0}, {"measurement": "Number of AEs, all-causality treatment-emergent", "setting": "[3]", "value": 0}, {"measurement": "Number of subjects with AEs, all-causality", "setting": "[3]", "value": 0}, {"measurement": "Number of subjects with SAEs", "setting": "[3]", "value": 0}, {"measurement": "Number of subjects with discontinuation due to AEs", "setting": "[3]", "value": 0}, {"measurement": "Number of subjects with severe AEs", "setting": "[3]", "value": 0}, {"measurement": "Number of subjects with temporary discontinuation or dose reduction due to AEs", "setting": "[3]", "value": 0}, {"measurement": "Fatigue (MedDRA preferred term), all-causality", "setting": "[4]", "value": 0}, {"measurement": "Headache (MedDRA preferred term), all-causality", "setting": "[4]", "value": 0}, {"measurement": "Number of AEs, all-causality treatment-emergent", "setting": "[4]", "value": 0}, {"measurement": "Number of subjects with AEs, all-causality", "setting": "[4]", "value": 0}, {"measurement": "Number of subjects with SAEs", "setting": "[4]", "value": 0}, {"measurement": "Number of subjects with discontinuation due to AEs", "setting": "[4]", "value": 0}, {"measurement": "Number of subjects with severe AEs", "setting": "[4]", "value": 0}, {"measurement": "Number of subjects with temporary discontinuation or dose reduction due to AEs", "setting": "[4]", "value": 0}, {"measurement": "Fatigue (MedDRA preferred term), all-causality", "setting": "[5]", "value": 0}, {"measurement": "Headache (MedDRA preferred term), all-causality", "setting": "[5]", "value": 0}, {"measurement": "Number of AEs, all-causality treatment-emergent", "setting": "[5]", "value": 0}, {"measurement": "Number of subjects with AEs, all-causality", "setting": "[5]", "value": 0}, {"measurement": "Number of subjects with SAEs", "setting": "[5]", "value": 0}, {"measurement": "Number of subjects with discontinuation due to AEs", "setting": "[5]", "value": 0}, {"measurement": "Number of subjects with severe AEs", "setting": "[5]", "value": 0}, {"measurement": "Number of subjects with temporary discontinuation or dose reduction due to AEs", "setting": "[5]", "value": 0}, {"measurement": "Fatigue (MedDRA preferred term), all-causality", "setting": "[6]", "value": "1 (1)"}, {"measurement": "Fatigue, treatment related", "setting": "[6]", "value": "1 (1)"}, {"measurement": "Headache (MedDRA preferred term), all-causality", "setting": "[6]", "value": 0}, {"measurement": "Number of AEs, all-causality treatment-emergent", "setting": "[6]", "value": 7}, {"measurement": "Number of AEs, treatment related", "setting": "[6]", "value": 4}, {"measurement": "Number of subjects with AEs, all-causality", "setting": "[6]", "value": "4 (4)"}, {"measurement": "Number of subjects with AEs, treatment related", "setting": "[6]", "value": "4 (4)"}, {"measurement": "Number of subjects with SAEs", "setting": "[6]", "value": 0}, {"measurement": "Number of subjects with discontinuation due to AEs", "setting": "[6]", "value": 0}, {"measurement": "Number of subjects with severe AEs", "setting": "[6]", "value": 0}, {"measurement": "Number of subjects with temporary discontinuation or dose reduction due to AEs", "setting": "[6]", "value": 0}, {"measurement": "Fatigue (MedDRA preferred term), all-causality", "setting": "[7]", "value": "2 (2)"}, {"measurement": "Fatigue, treatment related", "setting": "[7]", "value": "2 (2)"}, {"measurement": "Headache (MedDRA preferred term), all-causality", "setting": "[7]", "value": 0}, {"measurement": "Number of AEs, all-causality treatment-emergent", "setting": "[7]", "value": 5}, {"measurement": "Number of AEs, treatment related", "setting": "[7]", "value": 3}, {"measurement": "Number of subjects with AEs, all-causality", "setting": "[7]", "value": "3 (3)"}, {"measurement": "Number of subjects with AEs, treatment related", "setting": "[7]", "value": "3 (3)"}, {"measurement": "Number of subjects with SAEs", "setting": "[7]", "value": 0}, {"measurement": "Number of subjects with discontinuation due to AEs", "setting": "[7]", "value": 0}, {"measurement": "Number of subjects with severe AEs", "setting": "[7]", "value": 0}, {"measurement": "Number of subjects with temporary discontinuation or dose reduction due to AEs", "setting": "[7]", "value": 0}, {"measurement": "Fatigue (MedDRA preferred term), all-causality", "setting": "[8]", "value": 0}, {"measurement": "Headache (MedDRA preferred term), all-causality", "setting": "[8]", "value": "1 (1)"}, {"measurement": "Headache, treatment related", "setting": "[8]", "value": "1 (1)"}, {"measurement": "Number of AEs, all-causality treatment-emergent", "setting": "[8]", "value": "5 (5)"}, {"measurement": "Number of AEs, treatment related", "setting": "[8]", "value": "5 (5)"}, {"measurement": "Number of subjects with AEs, all-causality", "setting": "[8]", "value": "2 (2)"}, {"measurement": "Number of subjects with AEs, treatment related", "setting": "[8]", "value": "2 (2)"}, {"measurement": "Number of subjects with SAEs", "setting": "[8]", "value": 0}, {"measurement": "Number of subjects with discontinuation due to AEs", "setting": "[8]", "value": 0}, {"measurement": "Number of subjects with severe AEs", "setting": "[8]", "value": 0}, {"measurement": "Number of subjects with temporary discontinuation or dose reduction due to AEs", "setting": "[8]", "value": 0}, {"measurement": "Fatigue (MedDRA preferred term), all-causality", "setting": "[9]", "value": 0}, {"measurement": "Headache (MedDRA preferred term), all-causality", "setting": "[9]", "value": "2 (2)"}, {"measurement": "Headache, treatment related", "setting": "[9]", "value": "2 (2)"}, {"measurement": "Number of AEs, all-causality treatment-emergent", "setting": "[9]", "value": 10}, {"measurement": "Number of AEs, treatment related", "setting": "[9]", "value": 6}, {"measurement": "Number of subjects with AEs, all-causality", "setting": "[9]", "value": 6}, {"measurement": "Number of subjects with AEs, treatment related", "setting": "[9]", "value": 3}, {"measurement": "Number of subjects with SAEs", "setting": "[9]", "value": 0}, {"measurement": "Number of subjects with discontinuation due to AEs", "setting": "[9]", "value": 0}, {"measurement": "Number of subjects with severe AEs", "setting": "[9]", "value": 0}, {"measurement": "Number of subjects with temporary discontinuation or dose reduction due to AEs", "setting": "[9]", "value": 0}, {"measurement": "Findings in ECGs or vital signs", "setting": "studies B8271001 and B8271004", "value": "no clinically meaningful findings"}, {"measurement": "SAEs or deaths", "setting": "[10]", "value": "no SAEs or deaths were reported"}, {"measurement": "Severity of TEAEs", "setting": "[10]", "value": "mild to moderate"}]}]}
